This is an account of results in patent US9944630B1, “Dithiolane carbonate monomers and polymers thereof” (The Board of Trustees of the Leland Stanford Junior …, priority 2014, dated 2018).

The nature of the series: Loading of curcumin to polymeric micelles, UV-vis spectroscopy. It counts as physicochemical. The method, then:
The solution was added dropwise to 3 mL deionized water under stirring at room temperature. The solution was stirred for another 30 min and then dialyzed against deionized water for 24 h (MW cutoff=3500). The solution inside dialysis tubing was collected.

Take `COc1cc(/C=C/C(=O)CC(=O)/C=C/c2ccc(O)c(OC)c2)ccc1O` [curcumin, Curcumin]: the “effective concentration of curcumin dispersed in micelle solution” value (copolymer 1 micelle solution) is 187 µg/mL. For the same compound, the protection from hydrolysis entry (in hydrophobic micellar cores) is given as “effectively protect curcumin from hydrolysis”.
